{
  "source": "ChEMBL document CHEMBL1201862",
  "about": "“PubChem BioAssay data set” (2004)",
  "test_in_all_cases": "NCI tumour cell line growth inhibition, 48 h",
  "key": {"T47D": {"test_system": "T47D"}, "SK-MEL-5": {"test_system": "SK-MEL-5"}, "SN12C": {"test_system": "SN12C"}, "CAKI-1": {"test_system": "CAKI-1"}, "EKVX": {"test_system": "EKVX"}, "OVCAR-8": {"test_system": "OVCAR-8"}, "MDA-MB-231": {"test_system": "MDA-MB-231"}, "KM12": {"test_system": "KM12"}, "OVCAR-4": {"test_system": "OVCAR-4"}, "PC-3": {"test_system": "PC-3"}, "RPMI-8226": {"test_system": "RPMI-8226"}, "HOP-62": {"test_system": "HOP-62"}, "SNB-19": {"test_system": "SNB-19"}, "Malme-3M": {"test_system": "Malme-3M"}, "IGROV-1": {"test_system": "IGROV-1"}, "MDA-N": {"test_system": "MDA-N"}, "HOP-92": {"test_system": "HOP-92"}, "SF-539": {"test_system": "SF-539"}, "NCI-H460": {"test_system": "NCI-H460"}, "UACC-62": {"test_system": "UACC-62"}, "MCF7": {"test_system": "MCF7"}, "M14": {"test_system": "M14"}, "RXF 393": {"test_system": "RXF 393"}, "LOX IMVI": {"test_system": "LOX IMVI"}, "K562": {"test_system": "K562"}, "SW-620": {"test_system": "SW-620"}, "HL-60": {"test_system": "HL-60"}, "OVCAR-3": {"test_system": "OVCAR-3"}, "SF-295": {"test_system": "SF-295"}, "A549": {"test_system": "A549"}, "UO-31": {"test_system": "UO-31"}, "HCT-116": {"test_system": "HCT-116"}, "SK-MEL-28": {"test_system": "SK-MEL-28"}, "COLO 205": {"test_system": "COLO 205"}, "NCI-H522": {"test_system": "NCI-H522"}, "OVCAR-5": {"test_system": "OVCAR-5"}, "NCI/ADR-RES": {"test_system": "NCI/ADR-RES"}, "HCC 2998": {"test_system": "HCC 2998"}, "HT-29": {"test_system": "HT-29"}, "MOLT-4": {"test_system": "MOLT-4"}, "CCRF-CEM": {"test_system": "CCRF-CEM"}, "HCT-15": {"test_system": "HCT-15"}, "NCI-H23": {"test_system": "NCI-H23"}, "SK-OV-3": {"test_system": "SK-OV-3"}, "SNB-75": {"test_system": "SNB-75"}, "A498": {"test_system": "A498"}, "U-251": {"test_system": "U-251"}, "ACHN": {"test_system": "ACHN"}, "SK-MEL-2": {"test_system": "SK-MEL-2"}, "NCI-H226": {"test_system": "NCI-H226"}, "DU-145": {"test_system": "DU-145"}, "BT-549": {"test_system": "BT-549"}, "MDA-MB-435": {"test_system": "MDA-MB-435"}, "786-0": {"test_system": "786-0"}, "Hs-578T": {"test_system": "Hs-578T"}, "SF-268": {"test_system": "SF-268"}, "UACC-257": {"test_system": "UACC-257"}, "TK-10": {"test_system": "TK-10"}},
  "note": "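Five compound concentrations were applied to cells in 96-well plates for 48 hours; endpoints were derived by simple linear interpolation of the resulting dose-response curve. GI50 is the concentration that inhibits growth by half.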 Activity calls are given as the source filed them. Rule as the data show it: active = GI50 up to about 1.1 µM and inactive = higher.",
  "data": [
    {"smiles": "O=C(Nc1ccccc1)c1cc(S(=O)(=O)Nc2nc3cccnc3[nH]2)c(SSc2cc(Cl)c(C(=O)Nc3ccccc3)cc2S(=O)(=O)Nc2nc3cccnc3[nH]2)cc1Cl", "values": [
      {"measurement": "GI50", "setting": "T47D", "result": "> 100 µM (inactive)"},
      {"measurement": "GI50", "setting": "SK-MEL-5", "result": "> 100 µM (inactive)"},
      {"measurement": "GI50", "setting": "SN12C", "result": "> 100 µM (inactive)"},
      {"measurement": "GI50", "setting": "CAKI-1", "result": "> 100 µM (inactive)"},
      {"measurement": "GI50", "setting": "EKVX", "result": "> 100 µM (inactive)"},
      {"measurement": "GI50", "setting": "OVCAR-8", "result": "> 100 µM (inactive)"},
      {"measurement": "GI50", "setting": "MDA-MB-231", "result": "> 100 µM (inactive)"},
      {"measurement": "GI50", "setting": "KM12", "result": "> 100 µM (inactive)"},
      {"measurement": "GI50", "setting": "OVCAR-4", "result": "> 100 µM (inactive)"},
      {"measurement": "GI50", "setting": "PC-3", "result": "> 100 µM (inactive)"},
      {"measurement": "GI50", "setting": "RPMI-8226", "result": "> 100 µM (inactive)"},
      {"measurement": "GI50", "setting": "HOP-62", "result": "> 100 µM (inactive)"},
      {"measurement": "GI50", "setting": "SNB-19", "result": "> 100 µM (inactive)"},
      {"measurement": "GI50", "setting": "Malme-3M", "result": "> 100 µM (inactive)"},
      {"measurement": "GI50", "setting": "IGROV-1", "result": "> 100 µM (inactive)"},
      {"measurement": "GI50", "setting": "MDA-N", "result": "> 100 µM (inactive)"},
      {"measurement": "GI50", "setting": "HOP-92", "result": "> 100 µM (inactive)"},
      {"measurement": "GI50", "setting": "SF-539", "result": "> 100 µM (inactive)"},
      {"measurement": "GI50", "setting": "NCI-H460", "result": "> 100 µM (inactive)"},
      {"measurement": "GI50", "setting": "UACC-62", "result": "> 100 µM (inactive)"},
      {"measurement": "GI50", "setting": "MCF7", "result": "> 100 µM (inactive)"},
      {"measurement": "GI50", "setting": "M14", "result": "> 100 µM (inactive)"},
      {"measurement": "GI50", "setting": "RXF 393", "result": "> 100 µM (inactive)"},
      {"measurement": "GI50", "setting": "LOX IMVI", "result": "> 100 µM (inactive)"},
      {"measurement": "GI50", "setting": "K562", "result": "> 100 µM (inactive)"},
      {"measurement": "GI50", "setting": "SW-620", "result": "> 100 µM (inactive)"},
      {"measurement": "GI50", "setting": "HL-60", "result": "> 100 µM (inactive)"},
      {"measurement": "GI50", "setting": "OVCAR-3", "result": "> 100 µM (inactive)"},
      {"measurement": "GI50", "setting": "SF-295", "result": "> 100 µM (inactive)"},
      {"measurement": "GI50", "setting": "A549", "result": "> 100 µM (inactive)"},
      {"measurement": "GI50", "setting": "UO-31", "result": "> 100 µM (inactive)"},
      {"measurement": "GI50", "setting": "HCT-116", "result": "> 100 µM (inactive)"},
      {"measurement": "GI50", "setting": "SK-MEL-28", "result": "> 100 µM (inactive)"},
      {"measurement": "GI50", "setting": "COLO 205", "result": "> 100 µM (inactive)"},
      {"measurement": "GI50", "setting": "NCI-H522", "result": "> 100 µM (inactive)"},
      {"measurement": "GI50", "setting": "OVCAR-5", "result": "> 100 µM (inactive)"},
      {"measurement": "GI50", "setting": "NCI/ADR-RES", "result": "> 100 µM (inactive)"},
      {"measurement": "GI50", "setting": "HCC 2998", "result": "> 100 µM (inactive)"},
      {"measurement": "GI50", "setting": "HT-29", "result": "> 100 µM (inactive)"},
      {"measurement": "GI50", "setting": "MOLT-4", "result": "> 100 µM (inactive)"},
      {"measurement": "GI50", "setting": "CCRF-CEM", "result": "> 100 µM (inactive)"},
      {"measurement": "GI50", "setting": "HCT-15", "result": "> 100", "unit": "µM"},
      {"measurement": "GI50", "setting": "NCI-H23", "result": "> 100 µM (inactive)"},
      {"measurement": "GI50", "setting": "SK-OV-3", "result": "> 100 µM (inactive)"},
      {"measurement": "GI50", "setting": "SNB-75", "result": "> 100 µM (inactive)"},
      {"measurement": "GI50", "setting": "A498", "result": "> 100 µM (inactive)"},
      {"measurement": "GI50", "setting": "U-251", "result": "> 100 µM (inactive)"},
      {"measurement": "GI50", "setting": "ACHN", "result": "> 100 µM (inactive)"},
      {"measurement": "GI50", "setting": "SK-MEL-2", "result": "> 100 µM (inactive)"},
      {"measurement": "GI50", "setting": "NCI-H226", "result": "> 100 µM (inactive)"},
      {"measurement": "GI50", "setting": "DU-145", "result": "> 100 µM (inactive)"},
      {"measurement": "GI50", "setting": "BT-549", "result": "> 100 µM (inactive)"},
      {"measurement": "GI50", "setting": "MDA-MB-435", "result": "> 100 µM (inactive)"},
      {"measurement": "GI50", "setting": "786-0", "result": "> 100 µM (inactive)"},
      {"measurement": "GI50", "setting": "Hs-578T", "result": "> 100 µM (inactive)"},
      {"measurement": "GI50", "setting": "SF-268", "result": "> 100 µM (inactive)"},
      {"measurement": "GI50", "setting": "UACC-257", "result": "> 100 µM (inactive)"},
      {"measurement": "GI50", "setting": "TK-10", "result": "> 100 µM (inactive)"}
    ]}
  ]
}
